Measurements: patent US10683520B2, “Polycarboxylic acid extraction” (PURAC BIOCHEM BV, priority 2011, dated 2020)

Assay: Forward extraction of acid from salt-containing aqueous feed into methyl-isobutylketone and back extraction into water
Format: physicochemical
Conditions: 20° C.; for DBE (distribution ratio in back extraction, [acid]organic/[acid]water): MIBK organic phase / pure water; for [acid] aqueous fraction after back extraction: feed with 15 wt. % MgCl2 (acid in feed per Table 1.1), back extraction into pure water; for [acid] aqueous fraction after back extraction / DFE (distribution ratio in forward extraction, [acid]organic/[acid]water) / concentration ratio (acid concentration in product / acid concentration in feed): MIBK; for DFE (distribution ratio in forward extraction, [acid]organic/[acid]water) / concentration ratio (acid concentration in product / acid concentration in feed): feed with 15 wt. % MgCl2
Source text: Forward extraction and back extraction as used in the method of the invention are based on the difference in solubility of the carboxylic acid in water and the organic solvent at different temperatures. The solubility of a compound in one solvent relative to another solvent can be expressed in terms of the distribution ratio (DR). […] The distribution ratio may be defined as the ratio of the carboxylic acid concentration dissolved in the organic phase ([carboxylic acid]organic) over the concentration of the carboxylic acid dissolved in water ([carboxylic acid]water), provided that the two phases are in equilibrium with each other: DR=[carboxylic acid]organic/[carboxylic acid]water (1)
The general procedure is set up to mimic a continuous extraction process.
A feed solution was prepared comprising acid and salt in the amounts stipulated in the table. The solutions were stirred overnight.
1000 g of this feed solution was mixed with approximately 100 g of methyl-isobutylketone as solvent and stirred at 20° C. for minimum of 15 minutes. The mixture was transferred to a separation funnel where phases were separated. Samples of both phases were taken for analysis. Then approximately 100 g of organic phase was mixed with 10 g of pure water and stirred for minimum of 15 min at 20° C. Subsequently the whole mixture is again transferred to the separation funnel, phases are left to separate and samples of both phases are taken. Samples were analysed on acid content.
These tables also give the concentration ratio, which is the ratio between the acid concentration in the product and the acid concentration in the feed.
The composition of the starting solution and the acid concentration in the products is in Table 2.1 below.

Row | Structure (SMILES) | DBE (distribution ratio in back extraction, [acid]organic/[acid]water) | [acid] aqueous fraction after back extraction [wt. %] | DFE (distribution ratio in forward extraction, [acid]organic/[acid]water) | concentration ratio (acid concentration in product / acid concentration in feed)
1 | O=C(O)/C=C/C(=O)O [Fumaric acid, fumaric acid] | 0.24 | 0.21 | 1.75 | 1.8
2 | C=C(CC(=O)O)C(=O)O [Itaconic acid, itaconic acid] | 1.07 | 2.8 | 2.83 | 1.9
